Laboratory results as given in ChEMBL document CHEMBL1201862, “PubChem BioAssay data set” (2004).
The source made the active and inactive calls.

Tests used:
[1] = target: Disintegrin and metalloproteinase domain-containing protein 17 (Homo sapiens, UniProt P78536); test: inhibition of ADAM17 substrate cleavage – biochemical, quenched FRET substrate, counter-screen for ADAM10 exosite inhibitor project, dose response (AID 743253)
[2] = HGIII-sPLA2 enzyme inhibition potency – biochemical, QFRET, IC50, dose response (AID 743457);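 also: green fluorescence rise as the enzyme cleaves BODIPY PC-A2 in liposomes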
[3] = IGROV1 cell killing – plate reader, dry powder samples, PAX8 inhibitor project, dose response (AID 743043); assay type: functional, cell-based; conditions: IGROV-1
[4] = OVCAR-3 cell viability loss – plate reader, dry powder samples, PAX8 inhibitor project, dose response (AID 743044); assay type: functional, cell-based
[5] = OVCAR8 cell viability loss – plate reader, dry powder samples, PAX8 project, dose response (AID 743197); assay type: functional, cell-based; conditions: OVCAR-8
[6] = target: Paired box protein Pax-8 (Homo sapiens, UniProt Q06710); test: PAX8 transcriptional activity inhibition in RMG-I – RMG-I cells, luciferase, cherry-pick, dose response (AID 687027); assay type: functional, cell-based;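 also: luciferase reporter driven by Pax8 target thyroperoxidase promoter measured by SteadyGlo luminescence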
Sequence of Paired box protein Pax-8 (Q06710 whole entry): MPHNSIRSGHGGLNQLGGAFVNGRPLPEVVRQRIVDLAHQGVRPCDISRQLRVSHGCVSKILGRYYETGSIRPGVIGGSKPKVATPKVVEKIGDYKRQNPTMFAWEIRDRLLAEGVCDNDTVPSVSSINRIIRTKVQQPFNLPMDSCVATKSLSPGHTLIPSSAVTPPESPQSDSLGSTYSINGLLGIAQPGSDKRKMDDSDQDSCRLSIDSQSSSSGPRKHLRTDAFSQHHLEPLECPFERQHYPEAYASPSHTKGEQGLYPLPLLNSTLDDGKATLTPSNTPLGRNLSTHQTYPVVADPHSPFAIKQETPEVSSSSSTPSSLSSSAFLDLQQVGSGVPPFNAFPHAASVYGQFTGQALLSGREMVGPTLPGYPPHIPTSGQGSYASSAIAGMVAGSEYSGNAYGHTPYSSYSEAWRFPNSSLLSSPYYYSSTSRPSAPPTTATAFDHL

[7] = potency of ADAM10 substrate cleavage blockers – biochemical, QFRET, dose response (AID 743254);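 also: ADAM10 enzyme with the DM2 quenched FRET peptide as substrate; EDANS fluorescence gain as the protease cuts the substrate; inhibitor potency against ADAM10 proteolytic activity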
[8] = Luminescence Cell-Based Dose Retest to Confirm Inhibitors of Cancer Stem Cells. [Related pubchem assays (depositor defined):AID2717, AID2721]; assay type: functional; conditions: Homo sapiens
[9] = target: T1, Long-chain-fatty-acid--AMP ligase FadD28 (Mycobacterium tuberculosis, UniProt P9WQ59); test: Fluorescence polarization aasay to screen for inhibitors that compete for the binding of FadD28 to a bisubstrate Measured in Biochemical System Using Plate Reader - 2147-01_Inhibitor_Dose_CherryPick_Activity.; assay type: functional, Mycobacterium tuberculosis H37Rv
T1 sequence (P9WQ59 whole entry): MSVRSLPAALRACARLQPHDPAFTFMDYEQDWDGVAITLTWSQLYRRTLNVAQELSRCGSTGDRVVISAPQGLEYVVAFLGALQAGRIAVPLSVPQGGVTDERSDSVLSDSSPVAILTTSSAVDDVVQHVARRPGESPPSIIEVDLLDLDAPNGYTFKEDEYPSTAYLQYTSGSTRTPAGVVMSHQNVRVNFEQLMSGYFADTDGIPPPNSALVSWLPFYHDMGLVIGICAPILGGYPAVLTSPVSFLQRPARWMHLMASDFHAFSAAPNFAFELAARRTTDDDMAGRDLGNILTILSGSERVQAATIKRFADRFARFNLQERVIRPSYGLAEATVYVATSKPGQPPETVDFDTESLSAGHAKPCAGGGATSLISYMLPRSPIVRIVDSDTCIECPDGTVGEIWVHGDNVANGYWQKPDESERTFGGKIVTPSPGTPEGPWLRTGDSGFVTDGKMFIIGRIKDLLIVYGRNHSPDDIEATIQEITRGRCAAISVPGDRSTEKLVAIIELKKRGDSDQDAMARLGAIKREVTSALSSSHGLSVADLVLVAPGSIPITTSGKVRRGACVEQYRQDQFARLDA

[10] = A2780 cell killing – plate reader, dry powder samples, cytotoxicity control, dose response (AID 743046); assay type: functional, cell-based
[11] = test system: Streptococcus; test: GAS UMAA2166 growth inhibition – luminescence, BacTiterGlo, counter-screen for streptokinase expression inhibitor project, dose response (AID 1915); assay type: functional, organism-based;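 also: potency for reduction of bacterial viability or growth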
[12] = target: T2, Replicative DNA helicase DnaB (Mycobacterium tuberculosis, UniProt P9WMR3); test: DnaB intein splicing inhibitors, dose response, biochemical, cell-free fluorescence (AID 449749); assay type: functional
T2 sequence (P9WMR3 whole entry): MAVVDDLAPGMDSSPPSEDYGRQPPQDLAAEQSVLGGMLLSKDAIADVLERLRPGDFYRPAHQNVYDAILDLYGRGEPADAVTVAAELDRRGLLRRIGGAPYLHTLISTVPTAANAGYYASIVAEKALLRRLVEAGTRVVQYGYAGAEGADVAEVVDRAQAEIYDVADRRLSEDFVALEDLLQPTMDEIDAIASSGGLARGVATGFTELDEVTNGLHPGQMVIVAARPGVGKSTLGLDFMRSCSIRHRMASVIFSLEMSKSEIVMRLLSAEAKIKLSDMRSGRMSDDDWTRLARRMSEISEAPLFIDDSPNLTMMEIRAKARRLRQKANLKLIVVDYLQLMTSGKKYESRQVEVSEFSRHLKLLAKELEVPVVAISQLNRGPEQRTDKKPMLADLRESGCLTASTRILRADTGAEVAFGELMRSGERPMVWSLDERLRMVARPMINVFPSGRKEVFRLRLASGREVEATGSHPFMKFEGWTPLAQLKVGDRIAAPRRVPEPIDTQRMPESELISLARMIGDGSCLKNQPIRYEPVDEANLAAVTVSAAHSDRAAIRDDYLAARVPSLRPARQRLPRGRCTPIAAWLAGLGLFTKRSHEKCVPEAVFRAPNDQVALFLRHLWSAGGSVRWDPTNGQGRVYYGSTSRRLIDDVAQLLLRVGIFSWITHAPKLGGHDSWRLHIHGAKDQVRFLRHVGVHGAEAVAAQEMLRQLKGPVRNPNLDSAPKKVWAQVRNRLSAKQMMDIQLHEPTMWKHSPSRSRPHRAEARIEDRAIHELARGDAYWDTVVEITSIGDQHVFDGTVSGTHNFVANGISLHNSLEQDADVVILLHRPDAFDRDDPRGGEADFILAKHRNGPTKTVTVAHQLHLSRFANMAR

[13] = target: T3, Protein RecA (Mycobacterium tuberculosis, UniProt P9WHJ3); test: Fluorescence Cell-Free Homogeneous Dose Retest to Identify Inhibitors of RecA-Intein Splicing Activity. [Related pubchem assays (depositor defined):AID2097, AID2223, AID489010, AID492950]; assay type: functional
T3 sequence (P9WHJ3 whole entry): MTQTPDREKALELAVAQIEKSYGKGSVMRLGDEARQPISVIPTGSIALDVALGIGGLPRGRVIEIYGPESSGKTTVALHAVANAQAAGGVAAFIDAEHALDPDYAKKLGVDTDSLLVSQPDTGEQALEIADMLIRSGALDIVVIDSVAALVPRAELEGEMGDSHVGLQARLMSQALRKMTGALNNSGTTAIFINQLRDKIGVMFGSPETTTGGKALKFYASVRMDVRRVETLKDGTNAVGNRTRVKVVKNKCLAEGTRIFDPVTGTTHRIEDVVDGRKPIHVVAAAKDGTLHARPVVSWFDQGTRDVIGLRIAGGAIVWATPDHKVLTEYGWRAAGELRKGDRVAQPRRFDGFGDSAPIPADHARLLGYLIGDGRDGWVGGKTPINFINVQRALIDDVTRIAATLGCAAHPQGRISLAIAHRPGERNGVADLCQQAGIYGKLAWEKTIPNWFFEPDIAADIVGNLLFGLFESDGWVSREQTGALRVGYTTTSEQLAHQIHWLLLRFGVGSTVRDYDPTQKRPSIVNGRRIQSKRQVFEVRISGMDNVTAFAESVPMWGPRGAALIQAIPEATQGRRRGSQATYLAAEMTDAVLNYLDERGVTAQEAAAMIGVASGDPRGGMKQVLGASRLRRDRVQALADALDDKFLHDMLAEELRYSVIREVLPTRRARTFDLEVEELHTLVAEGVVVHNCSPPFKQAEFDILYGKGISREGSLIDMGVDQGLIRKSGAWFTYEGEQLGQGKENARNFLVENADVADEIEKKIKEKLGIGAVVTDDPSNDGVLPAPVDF

[14] = test system: Streptococcus sp. 'group A'; test: Streptococcus pyogenes SK(-)GAS viability under kanamycin – luminescence, BacTiterGlo, confirmation, counter-screen for streptokinase expression inhibitor project, dose response (AID 1900); assay type: functional, organism-based
[15] = target: T4, Streptokinase A (Streptococcus pyogenes serotype M1, UniProt P10520); test: viability-normalized secreted streptokinase activity reduction – plasminogen activation absorbance, OD405, dose response (AID 1914); assay type: functional, Streptococcus pyogenes M1 GAS;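 also: secreted streptokinase activity via plasminogen activation per viability signal from cell pellet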
T4 sequence (P10520 whole entry): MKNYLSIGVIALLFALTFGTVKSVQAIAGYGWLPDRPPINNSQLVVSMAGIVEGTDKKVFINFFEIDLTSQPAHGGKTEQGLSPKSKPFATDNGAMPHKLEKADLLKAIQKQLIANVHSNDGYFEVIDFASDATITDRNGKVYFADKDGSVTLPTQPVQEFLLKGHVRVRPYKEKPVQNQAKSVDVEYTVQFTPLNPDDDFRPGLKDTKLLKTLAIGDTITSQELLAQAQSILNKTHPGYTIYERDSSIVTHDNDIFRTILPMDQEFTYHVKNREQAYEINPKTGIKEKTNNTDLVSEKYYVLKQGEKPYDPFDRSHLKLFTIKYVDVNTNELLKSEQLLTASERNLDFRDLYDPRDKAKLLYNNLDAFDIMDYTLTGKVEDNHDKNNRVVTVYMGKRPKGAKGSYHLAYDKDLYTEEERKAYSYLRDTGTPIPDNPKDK

[16] = target: T5, Endoribonuclease toxin MazF (Escherichia coli K-12, UniProt P0AE70); test: substrate-only fluorescence increase artefacts – biochemical, single-stranded RNase substrate, counter-screen for MazEF activator project, dose response (AID 588502); assay type: functional
T5 sequence (P0AE70 whole entry): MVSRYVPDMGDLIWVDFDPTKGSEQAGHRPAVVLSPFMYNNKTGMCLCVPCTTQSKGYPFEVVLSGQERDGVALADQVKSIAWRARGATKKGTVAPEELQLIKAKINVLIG

[17] = target: T6, DNA repair protein RAD52 homolog (Homo sapiens, UniProt P43351); assay type: functional, biochemical
T6 sequence (P43351 whole entry): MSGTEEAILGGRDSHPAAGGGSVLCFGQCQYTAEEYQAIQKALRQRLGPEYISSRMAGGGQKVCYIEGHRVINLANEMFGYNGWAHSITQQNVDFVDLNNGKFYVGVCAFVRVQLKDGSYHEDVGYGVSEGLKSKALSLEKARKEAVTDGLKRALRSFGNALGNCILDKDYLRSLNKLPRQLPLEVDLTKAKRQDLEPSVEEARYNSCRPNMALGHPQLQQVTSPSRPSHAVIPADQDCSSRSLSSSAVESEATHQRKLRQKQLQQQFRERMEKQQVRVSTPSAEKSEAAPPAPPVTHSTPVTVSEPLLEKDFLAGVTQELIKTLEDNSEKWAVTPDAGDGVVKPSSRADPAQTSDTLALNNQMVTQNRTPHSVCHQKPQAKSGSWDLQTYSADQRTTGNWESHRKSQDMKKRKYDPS

[18] = target: Cytochrome P450 2C19 (Homo sapiens, UniProt P33261); test: Cytochrome panel assay with activity outcomes. Panel member name: p450-cyp2c19 Compounds with AC50 equal or less than 10 uM are considered active; assay type: functional; conditions: read-out: AC50
Sequence of Cytochrome P450 2C19 (P33261 whole entry): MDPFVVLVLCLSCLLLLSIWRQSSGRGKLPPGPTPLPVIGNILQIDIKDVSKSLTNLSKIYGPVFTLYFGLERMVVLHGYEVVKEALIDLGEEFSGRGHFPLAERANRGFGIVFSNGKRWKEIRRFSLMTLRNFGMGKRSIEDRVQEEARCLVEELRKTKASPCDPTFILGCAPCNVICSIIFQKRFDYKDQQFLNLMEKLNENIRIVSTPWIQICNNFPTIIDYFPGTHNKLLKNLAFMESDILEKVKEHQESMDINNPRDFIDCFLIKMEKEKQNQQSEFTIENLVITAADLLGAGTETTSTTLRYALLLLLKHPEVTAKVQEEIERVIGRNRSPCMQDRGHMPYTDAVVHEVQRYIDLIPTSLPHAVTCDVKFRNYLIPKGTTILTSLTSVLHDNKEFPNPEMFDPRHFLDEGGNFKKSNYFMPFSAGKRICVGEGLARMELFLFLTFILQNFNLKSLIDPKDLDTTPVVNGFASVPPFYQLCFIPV

[19] = target: T5, Endoribonuclease toxin MazF; test: activation of MazEF endoribonuclease cleavage – biochemical, fluorescence, single-stranded RNA substrate, uHTS hits, dose response (AID 588481); assay type: functional

Sequence of Disintegrin and metalloproteinase domain-containing protein 17 (P78536 whole entry, the tested form may be a part): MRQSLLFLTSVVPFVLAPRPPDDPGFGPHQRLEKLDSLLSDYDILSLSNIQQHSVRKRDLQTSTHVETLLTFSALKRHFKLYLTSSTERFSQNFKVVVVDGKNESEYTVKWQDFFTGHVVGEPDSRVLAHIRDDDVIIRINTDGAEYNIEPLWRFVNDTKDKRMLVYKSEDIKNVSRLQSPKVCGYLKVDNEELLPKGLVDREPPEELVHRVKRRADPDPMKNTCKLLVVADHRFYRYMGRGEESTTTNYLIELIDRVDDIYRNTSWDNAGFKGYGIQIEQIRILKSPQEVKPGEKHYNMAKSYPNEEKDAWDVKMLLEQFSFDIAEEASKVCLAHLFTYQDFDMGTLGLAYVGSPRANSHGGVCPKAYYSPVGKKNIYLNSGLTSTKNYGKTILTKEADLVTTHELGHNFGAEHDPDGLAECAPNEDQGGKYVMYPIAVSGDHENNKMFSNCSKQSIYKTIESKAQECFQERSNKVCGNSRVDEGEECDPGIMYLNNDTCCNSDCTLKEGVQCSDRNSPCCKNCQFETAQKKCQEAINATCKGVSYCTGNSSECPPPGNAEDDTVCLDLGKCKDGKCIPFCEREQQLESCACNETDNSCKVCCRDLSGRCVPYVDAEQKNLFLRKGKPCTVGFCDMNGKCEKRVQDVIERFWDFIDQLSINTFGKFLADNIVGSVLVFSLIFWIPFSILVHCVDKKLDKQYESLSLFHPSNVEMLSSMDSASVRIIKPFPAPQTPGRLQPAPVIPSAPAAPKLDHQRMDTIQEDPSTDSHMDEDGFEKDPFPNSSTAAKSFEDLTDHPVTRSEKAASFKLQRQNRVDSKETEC

O=C(NC=NOCc1ccc(Cl)cc1Cl)NOCc1ncc(C(F)(F)F)cc1Cl
IC50 [1]: > 69.5 µM (inactive)

O=C(NN=C(S)NC1CCCCC1)c1ccccc1O
IC50 [2]: > 122 µM (inactive)

C[C@@H]1CCCCO[C@H](CN(C)Cc2ccc(C(F)(F)F)cc2)[C@H](C)CN([C@H](C)CO)C(=O)c2cc(NC(=O)Cc3ccccc3)ccc2O1
AC50 [3]: 43.9 µM (active)
AC50 [4]: 26.8 µM (active)
AC50 [5]: 34.7 µM (active)
AC50 [6]: 6.16 µM (active)

CC(C)C[C@H](NC(=O)c1[nH]cnc1C(=O)NC(c1ccccc1)c1ccccc1)C(=O)OCc1ccccc1
IC50 [7]: 19.4 µM (inactive)

O=C(N=CNOCc1ccc(Cl)cc1Cl)NOCc1ncc(C(F)(F)F)cc1Cl
AC50 [8]: 4.02 µM (active)
IC50 [7]: 12.9 µM (inactive)

Cc1ccc(N/C(C(Cl)=C(Cl)Cl)=C(/Cl)[N+](=O)[O-])c(C)c1
AC50 [9]: > 100 µM (inactive)

C[C@@H]1CCCCO[C@@H](CN(C)C(=O)NC2CCCCC2)[C@H](C)CN([C@@H](C)CO)C(=O)c2cc(NC(=O)Nc3ccc(C(F)(F)F)cc3)ccc2O1
AC50 [4]: 38 µM (active)
AC50 [10]: 5.99 µM (active)
AC50 [5]: 47.1 µM (active)
AC50 [6]: 3.5 µM (active)

CC1=NN(c2nc(-c3ccccc3)cs2)C(=O)C1
EC50 [11]: > 150 µM (not active)
AC50 [12]: 7.99 µM (active)
EC50 [13]: 6.75 µM (active)
AC50 [9]: > 100 µM (inactive)
EC50 [14]: 16.9 µM (active)
EC50 [15]: 10 µM (active)

C[C@H]1CN([C@@H](C)CO)C(=O)c2cc(NS(=O)(=O)c3ccccc3)ccc2O[C@@H]1CN(C)Cc1ccc(Oc2ccccc2)cc1
AC50 [10]: 8.52 µM (active)
AC50 [6]: 15.7 µM (active)

Cc1ccc2c(c1)NC(=O)[C@@]1(C)[C@@H](c3ccccc3)[C@H]3COc4ccccc4[C@@H]3N1C2=O
IC50 [1]: > 69.5 µM (inactive)
IC50 [7]: > 69.5 µM (inactive)

Cc1ccc(-n2c(SCC(=O)Nc3cccc(S(N)(=O)=O)c3)nc3ccccc32)cc1
IC50 [1]: > 69.5 µM (inactive)
IC50 [7]: > 69.5 µM (inactive)

O=C(NNC(=S)NC(=O)c1ccccc1[N+](=O)[O-])c1ccccc1Cl
IC50 [2]: 115 µM (inactive)

CN(C)CCCn1c2c3ccccc3ccc2c2oc(=O)c3ccccc3c21
EC50 [16]: > 99 µM (inactive)
AC50 [17]: < 0.681 µM (active)
AC50 [18]: 0.794 µM (inconclusive)
EC50 [19]: > 99 µM (inactive)

Cc1ccccc1OCC(=O)NNC(=S)NC(=O)c1ccccc1[N+](=O)[O-]
IC50 [2]: 64.9 µM (inactive)

CN(c1ccc(C(=O)NCCSCc2ccccc2)cc1)S(=O)(=O)c1ccccc1
AC50 [9]: > 100 µM (inactive)

CC(C)C[C@H](NC(=O)c1nc[nH]c1C(=O)NC(c1ccccc1)c1ccccc1)C(=O)OCc1ccccc1
IC50 [1]: > 69.5 µM (inactive)
